Data: US20230310459A1, “NEUROACTIVE STEROIDS AND THEIR METHODS OF USE” (Sage Therapeutics, Inc., priority 2017, published 2023)

Test system: Adult patients with moderate to severe Major Depressive Disorder (MDD)
Test: Phase 2 double-blind placebo-controlled trial (Part B): HAM-D efficacy
Assay type: in vivo, human
Procedure: In the randomized, double-blind, parallel-group, placebo-controlled trial, eligible patients (with a minimum total score of 22 on the Hamilton Rating Scale for Depression) were stratified based on use of antidepressant treatment (current/stable or not treated/withdrawn ≥30 days) and randomized in a 1:1 ratio to receive Compound 1 Capsules (30 mg) or matching placebo. All doses of study drug were administered at night with food. The study consisted of a 14-day treatment period, and a 4-week follow-up period. The mean HAM-D total scores at baseline were 25.2 for the Compound 1 group and 25.7 for the placebo group (overall range 22-33), representing patients with moderate to severe MDD. Approximately 90 percent of patients in each group completed the study.

## C[C@@]1(O)CC[C@H]2[C@H](CC[C@@H]3[C@@H]2CC[C@]2(C)[C@@H](C(=O)Cn4cc(C#N)cn4)CC[C@@H]32)C1 [Compound 1, 1-(2-((3R,5R,8R,9R,10S,13S,14S,17S)-3-hydroxy-3,13-dimethylhexadecahydro-1H-cyclopenta[a]phenanthren-17-yl)-2-oxoethyl)-1H-pyrazole-4-carbonitrile]
Capsules 30 mg at night with food
  onset of improvement in HAM-D total score compared to placebo: significant by the morning following the first dose (Day 2)
Day 15, Capsules 30 mg at night with food for 14 days, baseline 25.2, placebo 10.7
  HAM-D total score, mean reduction from baseline: 17.6 points
Day 15, p<0.0001
  HAM-D total score, least squared mean difference from placebo: −7.0
Day 15, placebo 23 percent, p=0.0005
  remission rate (HAM-D total score not more than 7): 64%
Week 4, placebo 11.9, p=0.0243
  HAM-D total score, mean reduction from baseline: 15.6
Week 4, placebo 28 percent, p=0.0221
  remission rate: 52%
Week 6, placebo 13.0, not statistically improved
  HAM-D total score, mean reduction from baseline: 15.0
Week 6, placebo 33 percent, not significant
  remission rate: 45%
